Experimental data: patent publication US6310095A, “Inhibitors of protein isoprenyl transferases” (University of Pittsburgh, priority 1998, dated 2001)
Counter-ions that a name gives are not always drawn.

Target: T1, protein farnesyltransferase (Rattus norvegicus, UniProt Q02293+Q04631)
T1 construct: Rat brain protein farnesyltransferase activity is measured; from tissue; host or cells: rat brain; purified according to Reiss et al., Cell 62:81-88 (1990), steps one through three
Assay: in vitro inhibition of protein farnesyltransferase (scintillation proximity assay, biotin-K Ras B fragment)
Format: biochemical
Details: at 1 × 10^-5 M
Excerpt: The ability of the compounds of the invention to inhibit protein farnesyltransferase or protein geranylgeranyltransferase can be measured according to the method of Moores, et al., J. Biol. Chem. 266: 14603 (1991) or the method of Vogt, et al., J. Biol. Chem. 270:660-664 (1995). In addition, procedures for determination of the inhibition of farnesylation of the oncogene protein Ras are described by Goldstein, et al., J. Biol. Chem., 266:15575-15578 (1991) and by Singh in U.S. Pat. No. 5,245,061.
In addition, in vitro inhibition of protein farnesyltransferase may be measured by the following procedure. Rat brain protein farnesyltransferase activity is measured using an Amersham Life Science commercial scintillation proximity assay kit and substituting a biotin-K Ras B fragment (biotin-[…]CO2 H), 0.1 mM final concentration, for the biotin-lamin substrate provided by Amersham. The enzyme is purified according to Reiss, Y., et al., Cell, 62: 81-88 (1990), utilizing steps one through three.
The % inhibition of protein farnesyltransferase was determined for representative compounds of the invention.

inhibition at 10 µM [%] | SMILES
76 | CSCC[C@H](NC(=O)c1ccc(CNc2cc(C)ns2)cc1-c1ccccc1)C(=O)O [Example 373]
61 | CSCC[C@H](NC(=O)c1ccc(CNc2nccs2)cc1-c1ccccc1)C(=O)O [Example 374]
71 | CSCC[C@H](NC(=O)c1ccc(CNCCCN2CCOCC2)cc1-c1ccccc1)C(=O)O [Example 377]
79 | CSCC[C@H](NC(=O)c1ccc(CNc2cc(C(C)(C)C)[nH]n2)cc1-c1ccccc1)C(=O)O [Example 381]

Same assay, conditions: at 1 × 10^-6 M

SMILES | % inhibition of farnesyltransferase [%]
CSCC[C@H](NC(=O)c1ccc(COCCC23CC4CC(CC(C4)C2)C3)cc1-c1ccccc1C)C(=O)O [Example 404] | 98
CSCC[C@H](NC(=O)c1ccc(COCCCC2CCCCC2)cc1-c1ccccc1C)C(=O)O [Example 405] | 98
CSCC[C@H](NC(=O)c1ccc(COCc2ccc(CN(C)C)o2)cc1-c1ccccc1C)C(=O)O [Example 435] | 96
CSCC[C@H](NC(=O)c1ccc(CCc2ccccc2-c2ccccc2)cc1-c1ccccc1C)C(=O)[O-].[Li+] [Example 452] | 96
CSCC[C@H](NC(=O)c1ccc(C=Cc2ccccc2Oc2ccccc2)cc1-c1ccccc1C)C(=O)[O-].[Li+] [Example 453] | 90
Cc1ccccc1-c1cc(CCc2ccccc2Oc2ccccc2)ccc1C(=O)N[C@@H](CC[S+](C)[O-])C(=O)O (some centres unmarked) [Example 456] | 81
CSCC[C@H](NC(=O)c1ccc(C=Cc2ccccc2Cc2ccccc2)cc1-c1ccccc1C)C(=O)[O-].[Li+] [Example 457] | 92
Cc1ccccc1-c1cc(CCc2cccc(Oc3ccccc3)c2)ccc1C(=O)N[C@@H](CC[S+](C)[O-])C(=O)O (some centres unmarked) [Example 460] | 88
Cc1ccccc1-c1cc(CCc2ccc(Oc3ccccc3)cc2)ccc1C(=O)N[C@@H](CC[S+](C)[O-])C(=O)O (some centres unmarked) [Example 463] | 91
CSCC[C@H](NC(=O)c1ccc(/C=C/c2ccc3ccccc3c2)cc1-c1ccccc1C)C(=O)O [Example 465] | 92
CSCC[C@H](NC(=O)c1ccc(CCc2cccc3ccccc23)cc1-c1ccccc1C)C(=O)[O-].[Li+] [Example 467] | 97
CSCC[C@H](NC(=O)c1ccc(CCCc2ccc3ccccc3c2)cc1-c1ccccc1C)C(=O)[O-].[Li+] [Example 470] | 95

Continued, values first:

% inhibition of farnesyltransferase [%] | SMILES
93 | CSCC[C@H](NC(=O)c1ccc(/C=C/c2cccc3ccccc23)cc1-c1ccccc1C)C(=O)O [Example 466]
96 | CSCC[C@H](NC(=O)c1ccc(CCc2ccc3ccccc3c2)cc1-c1ccccc1C)C(=O)O [Example 468]
92 | CSCC[C@H](NC(=O)c1ccc(C=CCc2ccccc2)cc1-c1ccccc1C)C(=O)O [Example 469]
94 | CSCC[C@H](NC(=O)c1ccc(/C=C/CC2CCCCC2)cc1-c1ccccc1C)C(=O)O [Example 471]
97 | CSCC[C@H](NC(=O)c1ccc(/C=C/CCc2ccccc2)cc1-c1ccccc1C)C(=O)O [Example 472]
96 | CSCC[C@H](NC(=O)c1ccc(CCCC(=O)c2ccc3ccccc3c2)cc1-c1ccccc1C)C(=O)O [Example 473]
92 | CSCC[C@H](NC(=O)c1ccc(/C=C/CC(O)c2ccc3ccccc3c2)cc1-c1ccccc1C)C(=O)O (some centres unmarked) [Example 474]
98 | CSCC[C@H](NC(=O)c1ccc(CCCCC2CCCCC2)cc1-c1ccccc1C)C(=O)O [Example 478]
87 | CSCC[C@H](NC(=O)c1ccc(C=CCCCc2ccccc2)cc1-c1ccccc1C)C(=O)O [Example 480]
96 | CSCC[C@H](NC(=O)c1ccc(/C=C/c2cncnc2)cc1-c1ccccc1C)C(=O)O [Example 494]
95 | CSCC[C@H](NC(=O)c1ccc(/C=C/c2cnccn2)cc1-c1ccccc1C)C(=O)O [Example 495]
93 | CSCC[C@H](NC(=O)c1ccc(C=CCc2ccc3ccccc3c2)cc1-c1ccccc1C)C(=O)O [Example 496]

Same assay, conditions: at 1 × 10^-6 M; read-out: % inhibition of farnesyltransferase

SMILES | inhibition at 1 µM [%]
CCSC[C@H](CC1CCCCC1)NCc1ccc(C(=O)N[C@@H](CCSC)C(=O)O)c(-c2ccccc2C)c1 [Example 403, [4-(1-ethylthio-3-cyclohexylprop-2-ylaminomethyl)-2-(2-methylphenyl)benzoyl]methionine] | 99
CSCC[C@H](NC(=O)c1ccc(CN(Cc2ccccc2)c2ccccc2)cc1-c1ccccc1C)C(=O)O [Example 406, 4-(N-benzyl-N-phenyl)-aminomethyl-2-(2-methylphenyl)benzoylmethionine] | 95

The next lines start with the values.

inhibition at 1 µM [%] | SMILES
21 | CSCC[C@H](NC(=O)c1ccc(NCC(CO)(Cc2ccccc2)Cc2ccccc2)cc1-c1ccccc1C)C(=O)O [Example 475, N-[4-N-(2,2-dibenzyl-3-hydroxypropyl)amino-2-(2-methylphenyl)benzoyl]methionine sodium salt]
91 | CSCC[C@H](NC(=O)c1ccc(NCC(CO)Cc2ccccc2)cc1-c1ccccc1C)C(=O)O (some centres unmarked) [Example 476, N-[4-N-(2-benzyl-3-hydroxypropyl)amino-2-(2-methylphenyl)benzoyl]methioninesodium salt]
95 | CSCC[C@H](NC(=O)c1ccc(NCC(CO)CC2CCCCC2)cc1-c1ccccc1C)C(=O)O (some centres unmarked) [Example 479, N-[4-N-(2-cyclohexylmethyl-3-hydroxypropyl)amino-2-(2-methylphenyl)benzoyl]methionine]
95 | CSCC[C@H](NC(=O)c1ccc(NC(=O)c2cnccc2C(F)(F)F)cc1-c1ccccc1C)C(=O)O [Example 481, N-[4-N-(4-trifluoromethylnicotinoyl)amino-2-(2-methylphenyl)benzoyl]methionine lithium salt]

Same assay, conditions: at 1 × 10^-7 M

SMILES | % inhibition of farnesyltransferase [%]
CSCC[C@H](NC(=O)c1ccc(COCc2ccc(Br)o2)cc1-c1ccccc1C)C(=O)[O-].[Li+] [Example 434] | 93
CSCC[C@H](NC(=O)c1ccc(COCc2ccc(-c3cccc(F)c3)o2)cc1-c1ccccc1C)C(=O)[O-].[Li+] [Example 436] | 89
CSCC[C@H](NC(=O)c1ccc(COCc2ccc(-c3ccccc3F)o2)cc1-c1ccccc1C)C(=O)[O-].[Li+] [Example 437] | 89
CSCC[C@H](NC(=O)c1ccc(COCc2ccc(-c3ccccc3C(F)(F)F)o2)cc1-c1ccccc1C)C(=O)[O-].[Li+] [Example 438] | 90
CSCC[C@H](NC(=O)c1ccc(COCc2ccc(-c3cccc([N+](=O)[O-])c3)o2)cc1-c1ccccc1C)C(=O)[O-].[Li+] [Example 440] | 92
CSCC[C@H](NC(=O)c1ccc(COCc2ccc(-c3cccc(C(F)(F)F)c3)o2)cc1-c1ccccc1C)C(=O)[O-].[Li+] [Example 441] | 91
COc1cccc(-c2ccc(COCc3ccc(C(=O)N[C@@H](CCSC)C(=O)[O-])c(-c4ccccc4C)c3)o2)c1.[Li+] [Example 442] | 88
CSCC[C@H](NC(=O)c1ccc(COCc2ccc(-c3ccc(Cl)cc3)o2)cc1-c1ccccc1C)C(=O)O [Example 443] | 97
CSCC[C@H](NC(=O)c1ccc(COCc2ccc(-c3ccc(C(F)(F)F)cc3)o2)cc1-c1ccccc1C)C(=O)[O-].[Li+] [Example 445] | 94
COc1ccc(-c2ccc(COCc3ccc(C(=O)N[C@@H](CCSC)C(=O)[O-])c(-c4ccccc4C)c3)o2)cc1.[Li+] [Example 446] | 91
CSCC[C@H](NC(=O)c1ccc(COCc2ccc(-c3ccc(SC)cc3)o2)cc1-c1ccccc1C)C(=O)[O-].[Li+] [Example 447] | 91
CSCC[C@H](NC(=O)c1ccc(COCc2ccc(-c3ccc(C=O)cc3)o2)cc1-c1ccccc1C)C(=O)[O-].[Li+] [Example 448] | 92
CSCC[C@H](NC(=O)c1ccc(COCc2ccc(-c3ccc(C(C)=O)cc3)o2)cc1-c1ccccc1C)C(=O)[O-].[Li+] [Example 449] | 91
CSCC[C@H](NC(=O)c1ccc(CCc2ccccc2Oc2ccccc2)cc1-c1ccccc1C)C(=O)[O-].[Li+] [Example 455] | 83
CSCC[C@H](NC(=O)c1ccc(CCc2ccccc2Cc2ccccc2)cc1-c1ccccc1C)C(=O)O [Example 458] | 87
CSCC[C@H](NC(=O)c1ccc(CCc2cccc(Oc3ccccc3)c2)cc1-c1ccccc1C)C(=O)[O-].[Li+] [Example 459] | 92
CSCC[C@H](NC(=O)c1ccc(CCc2ccc(C3CCCCC3)cc2)cc1-c1ccccc1C)C(=O)[O-].[Li+] [Example 461] | 93
CSCC[C@H](NC(=O)c1ccc(CCc2ccc(Oc3ccccc3)cc2)cc1-c1ccccc1C)C(=O)[O-].[Li+] [Example 462] | 91
CSCC[C@H](NC(=O)c1ccc(C#Cc2cncnc2)cc1-c1ccccc1C)C(=O)[O-].[Li+] [Example 493] | 51
